According to US6399618B1, “Compositions and methods for modulating sexual activity” (priority 1997, dated 2002):
Structures can show the parent of a compound that is named as a salt. Marks after values point to notes of the source that are not given here.

Experiments:
[1] = system: noradrenaline pre-contracted rabbit CC; experiment: Direct action on penile erection: tone of corpus cavernosal muscle strips in organ bath; settings: concentration from 10^-8 M to 10^-4 M; n=6
Method: Corpus cavernosal (CC) muscle strips were prepared from penises obtained from rabbit (n=6). CC strips were dissected free from tunica albungia and mounted in 10 or 25 mL organ baths containing Tyrode solution saturated with 95%O2/5% CO2 mixture.

male rats [2] = experiment: Antagonism of XVIb-induced erections by comparative compounds in rats; type: in vivo, SD rats; settings: for antagonism of the erectile promoting actions of XVIb: injected 30 minutes prior to XVIb 16 mg/kg ip, pindolol 0.1-3, scopolamine 0.1-3.0, haloperidol 0.01-0.3, ketanserin 0.1-3.0 mg/kg
Method: Male SD rats (300-500 g; n=6 per group) were injected with (±)-Pindolol, scopolamine, haloperidol, or ketanserin, 30 minutes prior to injection of a single dose of XVIb (16 mg/kg, ip) or saline.

male rats [3] = experiment: Rat sexual behavior, proerectile actions of XVIIa and XVIIb (ip); type: in vivo, SD rats; settings: 16 mg/kg ip
Method: Male SD rats (250-300 g) were injected with XVIIa (16 mg/kg, ip), XVIIb (16 mg/kg, ip) or distilled water (ip), and observed 5 minutes later for the number of erections (as characterized by penile grooming) and the time to the first erection, over a 60 minute observation period. Six rats at a time, housed singly, were observed by two observers. Treatments were administered in a standard randomized and double blinded manner.

male rats [4] = experiment: Rat sexual behavior, proerectile actions (injected); type: in vivo, SD rats; settings: for Erections/60 minutes / Latency to the first erection: mean±sem; for Erections/60 minutes / Latency to the first erection / Responders: n=10
Method: Male SD rats (350-450 g; n=10 per group) were injected with increasing doses of XVIb (4.0-64.0 mg/kg), XVIa (1.0, 4.0 or 16 mg/kg) or saline and observed 5 minutes later, in groups of 5, for the number of erections and the time to the first erection, over a 60 minutes observation period.
In Table 2, the effects of XVIb, XVIa and saline on erection in male rats is indicated. Data is expressed as the mean±sem for 10 test animals. Data marked with an asterisk “*” indicate significant difference from saline (α<0.05) as determined by ANOVA with Tukey test for multiple comparisons.

male primates = experiment: Sexual behavior in male primates, paired observation study (penile response grades); type: in vivo, macaca fascilaris; settings: 1.0 mg/kg ip; N=3; observed 1 hour
Method: Monkeys used for testing were separated from the cluster of cages and treated and observed in pairs in the middle of the housing environment.
N=3 for all drug-treated animals, while N=18 for saline-treated animals. […] Data are expressed as the number of test animals having a particular grade of penile response. Penile responses were scored every 10 sec for 1 hour according to the following scale:
Grade 0=glans are hidden from the view
Grade 1=glans are clearly visible
Grade 2=penis is extended
Grade 4=erection with masturbation
Grade 5=erection with masturbation and ejaculation

Molecule	number of test animals having Grade 0 penile response (glans are hidden from the view) (male primates)	number of test animals having Grade 1 penile response (glans are clearly visible) (male primates)	number of test animals having Grade 2 penile response (penis is extended) (male primates)	number of test animals having Grade 3 penile response (full erection) (male primates)	number of test animals having Grade 4 penile response (erection with masturbation) (male primates)	number of test animals having Grade 5 penile response (erection with masturbation and ejaculation) (male primates)	also measured
1-methyl-4-trifluoromethylphenylpiperazine	–	–	–	–	–	–	effect on tone of noradrenaline pre-contracted rabbit CC [1]: failed to reduce tone
CC(C)NCC(O)COc1cccc2[nH]ccc12 (racemic) [(±)-Pindolol]	–	–	–	–	–	–	erections after (±)-pindolol pretreatment plus XVIb (male rats [2]; highest dose tested of (±)-pindolol, XVIb 16 mg/kg ip, n=6): 2.0±0.4 erections/60 minutes; antagonism of the erectile promoting actions of XVIb (male rats [2]): antagonized the erectile promoting actions
O=c1n(CCCN2CCN(c3cccc(Cl)c3)CC2)nc2ccccn12 [Trazodone]	–	–	–	–	–	–	effect on tone of noradrenaline pre-contracted rabbit CC [1]: reduced tone of rabbit CC in a dose dependent manner
CN1CCN(C(=O)Cc2ccc(Cl)c(Cl)c2)CC1 [XVIIa, 1-Methyl-4-(2-(3,4-Dichlorophenyl)acetyl)piperazine Monohydrochloride]	–	–	–	–	–	–	Responders (male rats [3]): 67%; latency to first erection (male rats [3]): 6 min; maximum number of erections/rat (male rats [3]): 3 h⁻¹
COc1ccc(CC(=O)N2CCN(C)CC2)cc1OC [XVIIb, 1-Methyl-4-(3,4-Dimethoxyacetyl)Piperazine Monohydrochloride]	–	–	–	–	–	–	Responders (male rats [3]): 100%; latency to first erection (male rats [3]): 16 min; maximum number of erections/rat (male rats [3]): 5 h⁻¹
CN1CCN(C(=O)Cc2cccc3ccccc23)CC1 [XVIa, 1-Methyl-4(1-naphthaleneacetyl)piperazine monohydrochloride]	1	2	2	1	1	0	Erections/60 minutes (male rats [4]; 1.0 mg/kg): 1.2 ± 0.3; Latency to the first erection (male rats [4]; 1.0 mg/kg): 1929 ± 432 s; Responders (male rats [4]; 1.0 mg/kg): 100%; Erections/60 minutes (male rats [4]; 4.0 mg/kg): 3.0 ± 0.6; Latency to the first erection (male rats [4]; 4.0 mg/kg): 1749 ± 349 s; Responders (male rats [4]; 4.0 mg/kg): 100%; Erections/60 minutes (male rats [4]; 16.0 mg/kg): 5.4 ± 0.7* #; Latency to the first erection (male rats [4]; 16.0 mg/kg): 506 ± 105* sec; Responders (male rats [4]; 16.0 mg/kg): 100%; effect on penile erections (in words) (male rats [4]; 60 minutes observation): increased penile erections, although to a lesser degree than XVIb
CN1[C@@H]2C[C@@H](OC(=O)[C@H](CO)c3ccccc3)C[C@H]1[C@@H]1O[C@@H]12 [scopolamine]	–	–	–	–	–	–	antagonism of the erectile promoting actions of XVIb (male rats [2]): antagonized the erectile promoting actions; erections after scopolamine pretreatment plus XVIb (male rats [2]; scopolamine, XVIb 16 mg/kg ip, n=6): 1.2±0.3 erections/60 minutes
(±)-trans-N-[2-(1-(4-methyl)piperazinyl)cyclohexyl]naphthalene-2-acetamide monohydrochloride [XVb]	1	2	2	1	0	0	–
(±)-trans-N-methyl-[2-(1-(4-methyl)piperazinyl)cyclohexyl]naphthalene-1-acetamide monohydrochloride [Compound XVa]	1	2	2	2	2	0	–
(±)-trans-[2-(1-(4-methyl)piperazinyl)cyclohexyl]naphthalene-1-acetate monohydrochloride [XVc]	1	2	2	2	2	1	–
